{
  "source": "patent US8536307B2",
  "about": "“Anticalins” (Pieris AG, priority 1997, dated 2013)",
  "molecules": {"B1": {"name": "HepC4: Anticalin (Bbp mutein) binding hepatitis C peptide epitope, produced as fusion with Strep-Tag II and albumin-binding domain (protein)", "chain": "DVYHDGACPEVKPVDNFDWSQYHGKWWEVAKYPQAPGKYGKCGWAEYTPEGKSVKVSPYNVIHGKEYFAEGTAYPVGDSKIGKIYHSWTGGGLTAEWVFNVLSTDNKNYIIGYPCRYDEDKKGHLDPVWVLSRSMVLTGEAKTAVENYLIGSPVVDSQKLVYSDFSEAACKVNNLAEAKVLANRELDKYGVSDYYKNLINNAKTVEGVKALIDEILAALP", "modifications": "left off: small tags and cut ends"}, "B2": {"name": "Bbp: Recombinant bilin-binding protein from Pieris brassicae (modified, encoded on pBBP21/pBBP22), produced as a control (protein)", "chain": "DVYHDGACPEVKPVDNFDWSQYHGKWWEVAKYPNSVEKYGKCGWAEYTPEGKSVKVSNYHVIHGKEYFIEGTAYPVGDSKIGKIYHSLTYGGVTKENVFNVLSTDNKNYIIGYYCKYDEDKKGHQDFVWVLSRSMVLTGEAKTAVENYLIGSPVVDSQKLVYSDFSEAACKVNNLAEAKVLANRELDKYGVSDYYKNLINNAKTVEGVKALIDEILAALP", "modifications": "left off: small tags and cut ends"}, "B3": {"name": "HepC1: Anticalin (Bbp mutein) binding hepatitis C peptide epitope, produced as fusion with Strep-Tag II and albumin-binding domain (protein)", "chain": "DVYHDGACPEVKPVDNFDWSQYHGKWWEVAKYPKTKQKYEKCGWAEYTPEGKSVKVSLYHVIHGKEYFFEGTAYPVGDSKIGKIYHSVTAGGFTSEQVFSVLSTDNKNYIIGYACYYDEDKKGHVDFVWVLSRSMVLTGEAKTAVENYLIGSPVVDSQKLVYSDFSEAACKVNNLAEAKVLANRELDKYGVSDYYKNLINNAKTVEGVKALIDEILAALP", "modifications": "left off: small tags and cut ends"}},
  "key": {"[1]": {"target": "anticalin FluC, mutein of Pieris brassicae bilin-binding protein (Bbp): Asn34Ser, Ser35Lys, Val36Asn, Glu37Gly, Gly40Arg, Asn58Arg, His60Thr, Ile69Gln, Leu88Arg (Pieris brassicae, UniProt P09464, E52G/F142H/F83V/G55R/H75T/I84Q/K102S/K110R/K131R/K150M/L103R/N112G/N16D/N36Q/N49S/N73R/Q140L/S50K/V108K/V51N/Y105V/Y129R)", "sequence (P09464 other isoform, or with tags, fused parts or gaps with the stated changes)": "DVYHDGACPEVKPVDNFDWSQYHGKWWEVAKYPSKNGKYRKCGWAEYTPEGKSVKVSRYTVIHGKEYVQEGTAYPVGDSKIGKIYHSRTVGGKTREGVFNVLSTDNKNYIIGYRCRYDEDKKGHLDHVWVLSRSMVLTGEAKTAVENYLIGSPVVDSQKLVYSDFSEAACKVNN", "conditions": "fluorescence titration, excitation 280 nm, emission 340 nm, 1 μM anticalin, PBS with 1 mM EDTA, pH 7.4, 25° C.; [P]t additionally fitted as a free parameter"}, "[2]": {"target": "biotinylated synthetic hepatitis C-peptide epitope, peptide fragment no. 59 from the surface protein NS4 of HCV (SEQ ID NO:13) (Hepatitis C virus genotype 1a, UniProt P27958)", "test": "Sandwich-ELISA for detection of hepatitis C peptide epitope", "conditions": "ranking of signal strength", "procedure": "For the ELISA, the wells in a microtiter plate (ELISA-STRIP, 2×8 wells, KO, F-form, high binding capacity, Greiner) were each filled with 200 μl of a solution of 20 mg/ml HSA in 50 mM NaHCO3 pH 9.6 and were incubated for 1 hour at RT. After removal of the solution, the unoccupied binding sites were saturated with 200 μl 3% w/v BSA in PBS with 0.5% v/v Tween 20 for 1 hour. After washing three times with PBST, 50 μl of the undiluted periplasmic protein extract were filled into the respective first well of a row. 50 μl PBS were first placed into each of the subsequent wells of each row. 50 μl of the periplasmic protein extract were then pipetted into the respective second well, were mixed, and, starting from this, 1:2 dilutions in the subsequent wells were prepared in a stepwise manner. The periplasmic protein extract with the Bbp, which was made using pBBP22 as expression plasmid, served as a control.\nAfter 1 hour incubation at RT washing followed three times with PBST, followed by pipetting of 200 μl of the ligand solution (SEQ ID NO:13, 1 μM in PBST) into each well. […] To this end, 100 μl of a solution of 0.5 mg/ma p-nitrophenylphosphate (Amresco) in AP-buffer were placed in each well and product formation was measured by absorption at 405 nm in a SpectraMax 250 photometer (Molecular Devices) as dA/dt number."}, "[3]": {"test": "Fluorescence titration (decrease of intrinsic protein fluorescence) with ligand fluorescein", "type": "binding", "conditions": "measurement for comparison, fluorescein ligands", "protocol": "The ligand-binding characteristics of the anticalins, were then determined by fluorescence titration. Here, the decrease in the intrinsic tyrosine and tryptophan fluorescence of the protein upon complex formation with the ligand was measured. The measurements were made with a fluorescence photometer (MS III, Photon Technology International Inc.) at an excitation wavelength of 280 nm (slit width 5 nm) and emission wavelength of 340 nm (slit width 10 nm). Fluorescein, 4-amino-fluorescein as well as its conjugate with glutaric acid from Example 2 were used as ligands.\nPBS with addition of 1 mM EDTA, pH 7.4 (adjusted with NaOH) served as buffer system. […] For FluA and Bbp, the corrected calculated extinction coefficients in the presence of guanidinium chloride according to Gill and von Hippel (Anal. Biochem. 182 (1989), 319-326) of 59755 M^−1 cm^−1 (FluA) as well as 54150 M^−1 cm^−1 (Bbp) were used.\nFor the measurement, 2 ml of the anticalin solution was applied in a quartz cuvette equipped with a stirring bar and thermostatted at 25° C. in the sample holder of the photometer. […] After every titration step the sample was incubated for 1 minute with stirring for equilibration, and the fluorescence signal was measured as an average value over 10 s. […]\n[formula] Here, F is the normalized fluorescence intensity and [P]t the concentration of the anticalin. […]"}},
  "data": [
    {"molecule": "O=C(O)CCCC(=O)Nc1ccc2c(c1)C(=O)OC21c2ccc(O)cc2Oc2cc(O)ccc21", "note": "[4-Glutarylamidofluorescein, 4-glutarylamido-fluorescein]", "values": [
      {"measurement": "Dissociation constant (Kd)", "setting": "[1]", "value": "78 ± 3", "unit": "nM"}
    ]},
    {"molecule": "Nc1ccc2c(c1)C(=O)OC21c2ccc(O)cc2Oc2cc(O)ccc21", "note": "[4-Aminofluorescein, 4-amino-fluorescein]", "values": [
      {"measurement": "Dissociation constant (Kd)", "setting": "[1]", "value": "299 ± 41", "unit": "nM"}
    ]},
    {"molecule": "O=C1OC2(c3ccc(O)cc3Oc3cc(O)ccc32)c2ccccc21", "note": "[Fluorescein, fluorescein]", "values": [
      {"measurement": "Dissociation constant (Kd)", "setting": "[1]", "value": "411 ± 20", "unit": "nM"}
    ]},
    {"molecule": "B1", "values": [
      {"measurement": "sandwich-ELISA signal in comparison between anticalins", "setting": "[2]", "value": "followed by HepC4"}
    ]},
    {"molecule": "B2", "values": [
      {"measurement": "binding effect in fluorescence titration (dissociation constant)", "setting": "[3]", "value": "so weak that a dissociation constant could not be determined"}
    ]},
    {"molecule": "B3", "values": [
      {"measurement": "sandwich-ELISA signal in comparison between anticalins", "setting": "[2]", "value": "strongest"}
    ]}
  ]
}
